Measurements from ChEMBL document CHEMBL3885881, “DrugMatrix”.

Organism: Rattus norvegicus
Test: DrugMatrix - Regimen: Daily Repeat
Type: toxicity, organism-based, Sprague-Dawley
Design: regimen Daily Repeat, gender Male, age 6-8 weeks
Conditions: in vivo, po, route oral GAVAGE, […]; for ABSOLUTE BASOPHIL / ABSOLUTE EOSINOPHIL / ABSOLUTE LYMPHOCYTE / ABSOLUTE MONOCYTE / ABSOLUTE SEGMENTED NEUTROPHIL / BASOPHIL / EOSINOPHIL / ERYTHROCYTE COUNT / HEMATOCRIT / HEMOGLOBIN / LEUKOCYTE COUNT / LYMPHOCYTE / MEAN CORPUSCULAR HEMOGLOBIN / MEAN CORPUSCULAR HEMOGLOBIN CONCENTRATION / MEAN CORPUSCULAR VOLUME / MONOCYTE / NEUTROPHIL / NUCLEATED RED BLOOD CELLS / PLATELET COUNT: tissue Blood; for ALANINE AMINOTRANSFERASE / ALBUMIN / ALKALINE PHOSPHATASE / ASPARTATE AMINOTRANSFERASE / BLOOD UREA NITROGEN / CARBON DIOXIDE / CHLORIDE / CHOLESTEROL / CREATINE PHOSPHOKINASE / CREATININE / GLUCOSE / LACTATE DEHYDROGENASE / LIPASE / POTASSIUM / SODIUM / TOTAL BILIRUBIN / TOTAL PROTEIN / URIC ACID: tissue Plasma
[1] = 300 mg/kg, 72 h, dose level M1, time 3 day
[2] = 300 mg/kg, 120 h, dose level M1, time 5 day
[3] = 1500 mg/kg, 72 h, dose level High, time 3 day
[4] = 1500 mg/kg, 120 h, dose level High, time 5 day

CCc1ccc(CCOc2ccc(CC3SC(=O)NC3=O)cc2)nc1 (stereo not drawn) [PIOGLITAZONE]
ABSOLUTE BASOPHIL [1]: 0 CELLS/uL
ABSOLUTE EOSINOPHIL [1]: 0 CELLS/uL
ABSOLUTE LYMPHOCYTE [1]: 15172.67 CELLS/uL
ABSOLUTE MONOCYTE [1]: 43 CELLS/uL
ABSOLUTE SEGMENTED NEUTROPHIL [1]: 1184.33 CELLS/uL
BASOPHIL [1]: 0%
EOSINOPHIL [1]: 0%
ERYTHROCYTE COUNT [1]: 4.93 x10E6/uL
HEMATOCRIT [1]: 32.73%
HEMOGLOBIN [1]: 13 G/DL
LEUKOCYTE COUNT [1]: 16.4 x10E3/uL
LYMPHOCYTE [1]: 92.33%
MEAN CORPUSCULAR HEMOGLOBIN [1]: 26.4 pg
MEAN CORPUSCULAR HEMOGLOBIN CONCENTRATION [1]: 39.73 G/DL
MEAN CORPUSCULAR VOLUME [1]: 66.4 fL
MONOCYTE [1]: 0.33%
NEUTROPHIL [1]: 7.33%
NUCLEATED RED BLOOD CELLS [1]: 0.67 /100WBC
PLATELET COUNT [1]: 1282 x10E3/uL
ALANINE AMINOTRANSFERASE [1]: 81.33 u/L
ALBUMIN [1]: 4.1 G/DL
ALKALINE PHOSPHATASE [1]: 504.67 u/L
ASPARTATE AMINOTRANSFERASE [1]: 92 u/L
BLOOD UREA NITROGEN [1]: 13.67 mg/dL
CARBON DIOXIDE [1]: 34 mmol/L
CHLORIDE [1]: 103.33 MEQ/L
CHOLESTEROL [1]: 58.33 mg/dL
CREATINE PHOSPHOKINASE [1]: 248.33 u/L
CREATININE [1]: 0.22 mg/dL
GLUCOSE [1]: 137 mg/dL
LACTATE DEHYDROGENASE [1]: 98 u/L
LIPASE [1]: 10.67 u/L
POTASSIUM [1]: 6.5 MEQ/L
SODIUM [1]: 143.9 MEQ/L
TOTAL BILIRUBIN [1]: 0.1 mg/dL
TOTAL PROTEIN [1]: 5.47 G/DL
URIC ACID [1]: 1.27 mg/dL
ABSOLUTE BASOPHIL [2]: 0 CELLS/uL
ABSOLUTE EOSINOPHIL [2]: 0 CELLS/uL
ABSOLUTE LYMPHOCYTE [2]: 12765 CELLS/uL
ABSOLUTE MONOCYTE [2]: 138.67 CELLS/uL
ABSOLUTE SEGMENTED NEUTROPHIL [2]: 829.67 CELLS/uL
BASOPHIL [2]: 0%
EOSINOPHIL [2]: 0%
ERYTHROCYTE COUNT [2]: 4.76 x10E6/uL
HEMATOCRIT [2]: 31.27%
HEMOGLOBIN [2]: 12.9 G/DL
LEUKOCYTE COUNT [2]: 13.73 x10E3/uL
LYMPHOCYTE [2]: 93%
MEAN CORPUSCULAR HEMOGLOBIN [2]: 27.17 pg
MEAN CORPUSCULAR HEMOGLOBIN CONCENTRATION [2]: 41.37 G/DL
MEAN CORPUSCULAR VOLUME [2]: 65.73 fL
MONOCYTE [2]: 1%
NEUTROPHIL [2]: 6%
NUCLEATED RED BLOOD CELLS [2]: 0.67 /100WBC
PLATELET COUNT [2]: 1095.33 x10E3/uL
ALANINE AMINOTRANSFERASE [2]: 71.67 u/L
ALBUMIN [2]: 4.07 G/DL
ALKALINE PHOSPHATASE [2]: 406.67 u/L
ASPARTATE AMINOTRANSFERASE [2]: 102.33 u/L
BLOOD UREA NITROGEN [2]: 14.33 mg/dL
CARBON DIOXIDE [2]: 33.33 mmol/L
CHLORIDE [2]: 101.33 MEQ/L
CHOLESTEROL [2]: 56.67 mg/dL
CREATINE PHOSPHOKINASE [2]: 223.67 u/L
CREATININE [2]: 0.16 mg/dL
GLUCOSE [2]: 150.33 mg/dL
LACTATE DEHYDROGENASE [2]: 224.33 u/L
LIPASE [2]: 10.33 u/L
POTASSIUM [2]: 5.99 MEQ/L
SODIUM [2]: 143.9 MEQ/L
TOTAL BILIRUBIN [2]: 0.1 mg/dL
TOTAL PROTEIN [2]: 5.73 G/DL
URIC ACID [2]: 1.43 mg/dL
ABSOLUTE BASOPHIL [3]: 0 CELLS/uL
ABSOLUTE EOSINOPHIL [3]: 0 CELLS/uL
ABSOLUTE LYMPHOCYTE [3]: 8411 CELLS/uL
ABSOLUTE MONOCYTE [3]: 92.33 CELLS/uL
ABSOLUTE SEGMENTED NEUTROPHIL [3]: 1396.67 CELLS/uL
BASOPHIL [3]: 0%
EOSINOPHIL [3]: 0%
ERYTHROCYTE COUNT [3]: 4.68 x10E6/uL
HEMATOCRIT [3]: 29.23%
HEMOGLOBIN [3]: 11.2 G/DL
LEUKOCYTE COUNT [3]: 9.9 x10E3/uL
LYMPHOCYTE [3]: 84.33%
MEAN CORPUSCULAR HEMOGLOBIN [3]: 23.93 pg
MEAN CORPUSCULAR HEMOGLOBIN CONCENTRATION [3]: 38.27 G/DL
MEAN CORPUSCULAR VOLUME [3]: 62.47 fL
MONOCYTE [3]: 1%
NEUTROPHIL [3]: 14.67%
NUCLEATED RED BLOOD CELLS [3]: 0.33 /100WBC
PLATELET COUNT [3]: 1023.33 x10E3/uL
ALANINE AMINOTRANSFERASE [3]: 85.67 u/L
ALBUMIN [3]: 3.97 G/DL
ALKALINE PHOSPHATASE [3]: 537.33 u/L
ASPARTATE AMINOTRANSFERASE [3]: 97.67 u/L
BLOOD UREA NITROGEN [3]: 12.33 mg/dL
CARBON DIOXIDE [3]: 34.67 mmol/L
CHLORIDE [3]: 101 MEQ/L
CHOLESTEROL [3]: 67 mg/dL
CREATINE PHOSPHOKINASE [3]: 311.67 u/L
CREATININE [3]: 0.36 mg/dL
GLUCOSE [3]: 131 mg/dL
LACTATE DEHYDROGENASE [3]: 114.33 u/L
LIPASE [3]: 9.67 u/L
POTASSIUM [3]: 5.48 MEQ/L
SODIUM [3]: 145 MEQ/L
TOTAL BILIRUBIN [3]: 0.1 mg/dL
TOTAL PROTEIN [3]: 5.57 G/DL
URIC ACID [3]: 0.67 mg/dL
ABSOLUTE BASOPHIL [4]: 0 CELLS/uL
ABSOLUTE EOSINOPHIL [4]: 36.67 CELLS/uL
ABSOLUTE LYMPHOCYTE [4]: 8937 CELLS/uL
ABSOLUTE MONOCYTE [4]: 131.33 CELLS/uL
ABSOLUTE SEGMENTED NEUTROPHIL [4]: 1128.33 CELLS/uL
BASOPHIL [4]: 0%
EOSINOPHIL [4]: 0.33%
ERYTHROCYTE COUNT [4]: 4.76 x10E6/uL
HEMATOCRIT [4]: 30.03%
HEMOGLOBIN [4]: 11.5 G/DL
LEUKOCYTE COUNT [4]: 10.23 x10E3/uL
LYMPHOCYTE [4]: 87.33%
MEAN CORPUSCULAR HEMOGLOBIN [4]: 24.2 pg
MEAN CORPUSCULAR HEMOGLOBIN CONCENTRATION [4]: 38.3 G/DL
MEAN CORPUSCULAR VOLUME [4]: 63.17 fL
MONOCYTE [4]: 1.33%
NEUTROPHIL [4]: 11%
NUCLEATED RED BLOOD CELLS [4]: 0 /100WBC
PLATELET COUNT [4]: 962 x10E3/uL
ALANINE AMINOTRANSFERASE [4]: 56.33 u/L
ALBUMIN [4]: 3.93 G/DL
ALKALINE PHOSPHATASE [4]: 338.67 u/L
ASPARTATE AMINOTRANSFERASE [4]: 80 u/L
BLOOD UREA NITROGEN [4]: 13.67 mg/dL
CARBON DIOXIDE [4]: 33.67 mmol/L
CHLORIDE [4]: 101 MEQ/L
CHOLESTEROL [4]: 62.67 mg/dL
CREATINE PHOSPHOKINASE [4]: 366 u/L
CREATININE [4]: 0.36 mg/dL
GLUCOSE [4]: 140.67 mg/dL
LACTATE DEHYDROGENASE [4]: 107.33 u/L
LIPASE [4]: 8.67 u/L
POTASSIUM [4]: 5.6 MEQ/L
SODIUM [4]: 144.53 MEQ/L
TOTAL BILIRUBIN [4]: 0.17 mg/dL
TOTAL PROTEIN [4]: 5.47 G/DL
URIC ACID [4]: 0.63 mg/dL
